Laboratory results reported in US20260000676A1, “CHROMAN DERIVATIVES AS ESTROGEN RECEPTOR DEGRADERS” (THE REGENTS OF THE UNIVERSITY OF MICHIGAN, priority 2022, published 2026).

Legend:
CRBN/DDB1 = CRBN/DDB1 (Homo sapiens (Human), UniProt Q96SW2); test: HTRF binding assay to CRBN/DDB1; details: read-out: CRBN HTRF IC50
Procedure: The binding potency was determined using HTRF assay technology (Perkin Elmer). Compounds were serially diluted in DMSO and 0.2 μL volume was transferred to white 384-well plate.

ER = ER (Homo sapiens (Human), UniProt P03372); test: In-cell western (ICW) ER degradation assay in MCF-7 cells; type: cell-based; details: MCF7, 16 hrs; for DC50: ER degradation; for Dmax: MCF7, maximal ER degradation
Sequence of ER (P03372 whole entry): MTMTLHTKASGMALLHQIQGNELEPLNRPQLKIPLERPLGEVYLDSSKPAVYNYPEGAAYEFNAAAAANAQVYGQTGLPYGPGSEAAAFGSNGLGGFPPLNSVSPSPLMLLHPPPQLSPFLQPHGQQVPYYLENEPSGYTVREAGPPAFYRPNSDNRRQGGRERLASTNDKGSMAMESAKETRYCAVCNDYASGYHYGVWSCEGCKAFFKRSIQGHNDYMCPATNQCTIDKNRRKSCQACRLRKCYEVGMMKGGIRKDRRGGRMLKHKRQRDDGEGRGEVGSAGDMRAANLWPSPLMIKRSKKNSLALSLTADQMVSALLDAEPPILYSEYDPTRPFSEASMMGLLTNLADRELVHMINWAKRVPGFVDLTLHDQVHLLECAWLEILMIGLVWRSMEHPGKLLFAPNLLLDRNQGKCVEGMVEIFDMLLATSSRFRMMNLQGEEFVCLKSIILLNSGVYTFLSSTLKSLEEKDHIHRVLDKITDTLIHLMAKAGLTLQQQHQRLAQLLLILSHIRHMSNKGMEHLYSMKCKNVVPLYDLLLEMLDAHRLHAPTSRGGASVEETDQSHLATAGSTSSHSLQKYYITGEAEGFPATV
Procedure: ERa degradative activity of compounds can be assessed in MCF-7 and T47D Cells. MCF-7 and T47D cell are seeded and are subsequently treated with the compounds at certain concentrations (e.g., 0.02 to 300 nM). DMSO can be used as vehicle control. Cells are fixed and are blocked with Intercept (PBS) Blocking Buffer (e.g., Li-COR, Odyssey Blocking Buffer), and are stained with ER (e.g., 1:500, Cell signaling) primary antibody for overnight at cold room. Secondary Antibody (e.g., IRDye 800CW Goat anti-Rabbit IgG) and CellTag 700 Stain are added in Intercept (PBS) Blocking Buffer. Finally, cell plate is placed in incubator to dry. Image and signal are captured on Odyssey® DLx Imaging System.
Day 3: After 16 hrs of compounds treatment, cells were fixed by 4% PFA and permeabilized with elution buffer (0.1% Triton X-100 in 1% PBS Solution). Subsequently, cells were blocked with Intercept (PBS) Blocking Buffer (Li-COR, Odyssey Blocking Buffer), and were stained with ER (1:500, Cell signaling) primary antibody for overnight at cold room.
Day 4: Remove the buffer, add IRDye 800CW Goat anti-Rabbit IgG Secondary Antibody (1:2000) and CellTag 700 Stain (1:500) in Intercept (PBS) Blocking Buffer. Finally, cell plate is placed in incubator to dry. Image and signal were captured on Odyssey® DLx Imaging System.

Sequence of CRBN/DDB1 (Q96SW2 whole entry): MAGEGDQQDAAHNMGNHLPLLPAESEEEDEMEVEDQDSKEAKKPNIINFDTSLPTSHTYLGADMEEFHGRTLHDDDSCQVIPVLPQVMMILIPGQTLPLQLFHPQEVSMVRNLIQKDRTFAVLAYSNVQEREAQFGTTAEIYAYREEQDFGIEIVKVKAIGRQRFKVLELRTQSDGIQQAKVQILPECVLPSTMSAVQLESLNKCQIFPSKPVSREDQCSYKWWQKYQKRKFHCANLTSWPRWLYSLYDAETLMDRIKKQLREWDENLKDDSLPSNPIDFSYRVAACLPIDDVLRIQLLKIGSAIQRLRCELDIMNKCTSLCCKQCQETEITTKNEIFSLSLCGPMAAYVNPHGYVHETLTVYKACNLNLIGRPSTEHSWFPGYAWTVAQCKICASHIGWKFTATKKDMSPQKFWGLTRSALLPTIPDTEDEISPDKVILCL
Sequence of CRBN/DDB1 (Q16531 whole entry partner): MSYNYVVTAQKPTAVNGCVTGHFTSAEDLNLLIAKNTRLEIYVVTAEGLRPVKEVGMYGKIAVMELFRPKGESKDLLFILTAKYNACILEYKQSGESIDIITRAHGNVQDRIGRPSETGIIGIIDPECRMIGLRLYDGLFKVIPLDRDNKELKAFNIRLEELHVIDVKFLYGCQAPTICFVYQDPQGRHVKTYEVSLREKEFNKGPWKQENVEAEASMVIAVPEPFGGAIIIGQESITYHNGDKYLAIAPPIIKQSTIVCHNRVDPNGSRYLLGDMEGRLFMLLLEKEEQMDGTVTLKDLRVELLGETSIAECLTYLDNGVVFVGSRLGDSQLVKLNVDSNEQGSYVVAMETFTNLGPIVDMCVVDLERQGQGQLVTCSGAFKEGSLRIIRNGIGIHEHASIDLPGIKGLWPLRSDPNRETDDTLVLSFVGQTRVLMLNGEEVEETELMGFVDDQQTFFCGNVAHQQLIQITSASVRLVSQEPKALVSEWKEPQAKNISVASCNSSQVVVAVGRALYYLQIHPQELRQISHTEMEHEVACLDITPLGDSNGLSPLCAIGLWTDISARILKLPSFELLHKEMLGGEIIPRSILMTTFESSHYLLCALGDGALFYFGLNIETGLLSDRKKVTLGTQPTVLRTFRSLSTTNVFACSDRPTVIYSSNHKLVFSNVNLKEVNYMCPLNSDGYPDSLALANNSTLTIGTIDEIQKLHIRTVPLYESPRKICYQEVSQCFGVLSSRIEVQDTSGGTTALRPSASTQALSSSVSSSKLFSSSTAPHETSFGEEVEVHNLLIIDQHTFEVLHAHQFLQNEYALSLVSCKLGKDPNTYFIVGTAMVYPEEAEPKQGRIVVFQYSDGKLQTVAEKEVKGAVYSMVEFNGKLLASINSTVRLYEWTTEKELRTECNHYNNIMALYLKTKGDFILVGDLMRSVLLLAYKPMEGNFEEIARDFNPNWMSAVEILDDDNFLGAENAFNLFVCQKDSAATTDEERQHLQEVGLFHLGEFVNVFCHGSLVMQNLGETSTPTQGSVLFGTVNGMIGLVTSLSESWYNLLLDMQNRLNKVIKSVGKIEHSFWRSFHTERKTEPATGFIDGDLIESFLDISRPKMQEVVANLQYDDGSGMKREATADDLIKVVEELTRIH

SMILES | IC50 (CRBN/DDB1) | DC50 (ER) | Dmax (ER)
O=C1CCC(N2Cc3c(ccc4c3OC[C@@H]3CN(CC5CCN(c6ccc([C@@H]7c8ccc(O)cc8OC[C@@H]7c7ccccc7)cc6)CC5)CCN43)C2=O)C(=O)N1 (single isomer, unassigned) [Compound A7] | 50 to 500 nM | 1 to 10 nM | 50 to 75%
COc1ccc([C@H]2COc3cc(O)ccc3[C@H]2c2ccc(N3CCC(CN4CCN5c6ccc7c(c6OC[C@@H]5C4)CN(C4CCC(=O)NC4=O)C7=O)CC3)cc2)cc1 (single isomer, unassigned) [Compound A13] | 50 to 500 nM |  | 
O=C1CCC(N2Cc3cc4c(cc3C2=O)OC[C@@H]2CN(CC3CC5(CCN(c6ccc([C@H]7c8ccc(O)cc8OC[C@H]7c7ccccc7)cc6)CC5)C3)CCN42)C(=O)N1 (single isomer, unassigned) [Compound A27, 3-((S)-3-((7-(4-((3R,4S)-7-hydroxy-3-phenylchroman-4-yl)phenyl)-7-azaspiro[3.5]nonan-2-yl)methyl)-8-oxo-1,2,3,4,4a,5,8,10-octahydro-9H-pyrazino[1′,2′:4,5][1,4]oxazino[2,3-f]isoindol-9-yl)piperidine-2,6-dione] | 500 to 5000 nM | 1 to 10 nM | 
COc1nc(C(=O)NC2CCC(=O)NC2=O)ccc1N1CCN(CC2CCN(c3ccc([C@H]4c5ccc(O)cc5OC[C@H]4c4ccccc4)cc3F)CC2)CC1 (single isomer, unassigned) [Compound A102] | 500 to 5000 nM | < 1 nM | 50 to 75%
COc1cccc([C@H]2COc3cc(O)ccc3[C@H]2c2ccc(N3CCC(CN4CCN5c6ccc7c(c6OC[C@@H]5C4)CN(C4CCC(=O)NC4=O)C7=O)CC3)cc2)c1 (single isomer, unassigned) [Compound A23] | < 50 nM |  | 
O=C1CCC(N2Cc3cc4c(cc3C2=O)CN(C(=O)CN2CCC3(CC2)CCN(c2ccc([C@@H]5c6ccc(O)cc6OC[C@@H]5c5ccccc5)cc2)CC3)C4)C(=O)N1 (single isomer, unassigned) [Compound A42] | 50 to 500 nM | > 100 nM | < 25%
COc1cccc([C@@H]2COc3cc(O)ccc3[C@@H]2c2ccc(N3CCC(CN4CCN5c6ccc7c(c6OC[C@@H]5C4)CN(C4CCC(=O)NC4=O)C7=O)CC3)cc2)c1 (single isomer, unassigned) [Compound A24] | < 50 nM |  | 
O=C1CCC(N2Cc3c(ccc4c3OC[C@@H]3CN(CC5CCN(c6ncc([C@@H]7c8ccc(O)cc8OC[C@@H]7c7ccccc7)cn6)CC5)CCN43)C2=O)C(=O)N1 (single isomer, unassigned) [Compound A20] | < 50 nM |  | 
O=C1CCC(N2C(=O)c3cc4c(cc3C2=O)CN(CC(=O)N2CCC3(CC2)CCN(c2ncc([C@H]5c6ccc(O)cc6OC[C@H]5c5ccccc5)cn2)CC3)C4)C(=O)N1 (stereo partly drawn) [Compound A4, 2-(2,6-dioxopiperidin-3-yl)-6-(2-(9-(5-((3R,4S)-7-hydroxy-3-phenylchroman-4-yl)pyrimidin-2-yl)-3,9-diazaspiro[5.5]undecan-3-yl)-2-oxoethyl)-6,7-dihydropyrrolo[3,4-f]isoindole-1,3(2H,5H)-dione] | 500 to 5000 nM |  | 
COc1ccc([C@@H]2COc3cc(O)ccc3[C@@H]2c2ccc(N3CCC(CN4CCN5c6ccc7c(c6OC[C@H]5C4)CN(C4CCC(=O)NC4=O)C7=O)CC3)cc2)cc1 (single isomer, unassigned) [Compound A15] | 50 to 500 nM |  | 
O=C1CCC(N2Cc3c(ccc4c3OC[C@@H]3CN(CC5CCN(c6ncc([C@H]7c8ccc(O)cc8OC[C@H]7c7ccccc7)cn6)CC5)CCN43)C2=O)C(=O)N1 (single isomer, unassigned) [Compound A19] | 50 to 500 nM |  | 
O=C1CCC(N2Cc3cc4c(cc3C2=O)OC[C@@H]2CN(CC3CCN(c5ncc([C@H]6c7ccc(O)cc7OC[C@H]6c6ccccc6)cn5)CC3)CCN42)C(=O)N1 (stereo partly drawn) [Compound A18, 3-((S)-3-((1-(5-((3R,4S)-7-hydroxy-3-phenylchroman-4-yl)pyrimidin-2-yl)piperidin-4-yl)methyl)-8-oxo-1,2,3,4,4a,5,8,10-octahydro-9H-pyrazino[1′,2′:4,5][1,4]oxazino[2,3-f]isoindol-9-yl)piperidine-2,6-dione] | 500 to 5000 nM |  | 
O=C1CCC(N2C(=O)c3cc4c(cc3C2=O)CN(C(=O)CN2CC3(CCN(c5ccc([C@@H]6c7ccc(O)cc7OC[C@@H]6c6ccccc6)cc5)CC3)C2)C4)C(=O)N1 (stereo partly drawn) [Compound A32, 2-(2,6-dioxopiperidin-3-yl)-6-(2-(7-(4-((3S,4R)-7-hydroxy-3-phenylchroman-4-yl)phenyl)-2,7-diazaspiro[3.5]nonan-2-yl)acetyl)-6,7-dihydropyrrolo[3,4-f]isoindole-1,3(2H,5H)-dione] | 500 to 5000 nM |  | 
COc1ccc([C@@H]2COc3cc(O)ccc3[C@@H]2c2ccc(N3CCC(CN4CCN5c6ccc7c(c6OC[C@@H]5C4)CN(C4CCC(=O)NC4=O)C7=O)CC3)cc2)cc1 (single isomer, unassigned) [Compound A12] | 50 to 500 nM |  | 
O=C1CCC(N2Cc3cc4c(cc3C2=O)OC[C@@H]2CN(CC3CCN(c5ncc([C@@H]6c7ccc(O)cc7OC[C@@H]6c6ccccc6)cn5)CC3)CCN42)C(=O)N1 (stereo partly drawn) [Compound A10, 3-((S)-3-((1-(5-((3S,4R)-7-hydroxy-3-phenylchroman-4-yl)pyrimidin-2-yl)piperidin-4-yl)methyl)-8-oxo-1,2,3,4,4a,5,8,10-octahydro-9H-pyrazino[1′,2′:4,5][1,4]oxazino[2,3-f]isoindol-9-yl)piperidine-2,6-dione] | 500 to 5000 nM |  | 
O=C1CCC(N2Cc3cc4c(cc3C2=O)OC[C@@H]2CN(CC3CC5(CCN(c6ccc([C@@H]7c8ccc(O)cc8OC[C@@H]7c7ccccc7)cc6)CC5)C3)CCN42)C(=O)N1 (stereo partly drawn) [Compound A28, 3-((S)-3-((7-(4-((3S,4R)-7-hydroxy-3-phenylchroman-4-yl)phenyl)-7-azaspiro[3.5]nonan-2-yl)methyl)-8-oxo-1,2,3,4,4a,5,8,10-octahydro-9H-pyrazino[1′,2′:4,5][1,4]oxazino[2,3-f]isoindol-9-yl)piperidine-2,6-dione] | > 5000 nM |  | 
O=C1CCC(Nc2ccc(N3CCN(CC4CCN(c5ccc([C@@H]6c7ccc(O)cc7OC[C@@H]6c6ccccc6)cc5F)CC4)CC3)c(F)c2)C(=O)N1 (stereo partly drawn) [Compound A29, 3-((3-fluoro-4-(4-((1-(2-fluoro-4-((3S,4R)-7-hydroxy-3-phenylchroman-4-yl)phenyl)piperidin-4-yl)methyl)piperazin-1-yl)phenyl)amino)piperidine-2,6-dione] | 500 to 5000 nM |  | 
O=C1CCC(N2Cc3c(ccc4c3OC[C@@H]3CN(CC5CC6(CCN(c7ccc([C@H]8c9ccc(O)cc9OC[C@H]8c8ccccc8)cc7)CC6)C5)CCN43)C2=O)C(=O)N1 (single isomer, unassigned) [Compound A21, 3-((S)-7-((7-(4-((3R,4S)-7-hydroxy-3-phenylchroman-4-yl)phenyl)-7-azaspiro[3.5]nonan-2-yl)methyl)-1-oxo-1,3,5,5a,6,7,8,9-octahydro-2H-pyrazino[1′,2′:4,5][1,4]oxazino[2,3-e]isoindol-2-yl)piperidine-2,6-dione] | < 50 nM |  | 
O=C1CCC(Nc2ccc(N3CCN(CC4CCN(c5ccc([C@@H]6c7ccc(O)cc7OC[C@@H]6c6ccccc6)cc5)CC4)CC3)c(F)c2)C(=O)N1 (stereo partly drawn) [Compound A30, 3-((3-fluoro-4-(4-((1-(4-((3S,4R)-7-hydroxy-3-phenylchroman-4-yl)phenyl)piperidin-4-yl)methyl)piperazin-1-yl)phenyl)amino)piperidine-2,6-dione] | 500 to 5000 nM |  | 
O=C1CCC(N2Cc3cc4c(cc3C2=O)OC[C@@H]2CN(CC3CCN(c5ccc([C@H]6c7ccc(O)cc7OC[C@H]6c6ccccc6)cc5)CC3)CCN42)C(=O)N1 (stereo partly drawn) [Compound A11, 3-((S)-3-((1-(4-((3R,4S)-7-hydroxy-3-phenylchroman-4-yl)phenyl)piperidin-4-yl)methyl)-8-oxo-1,2,3,4,4a,5,8,10-octahydro-9H-pyrazino[1′,2′:4,5][1,4]oxazino[2,3-f]isoindol-9-yl)piperidine-2,6-dione] | > 5000 nM |  | 
O=C1CCC(N2Cc3c(ccc4c3OC[C@@H]3CN(CC5CC6(CCN(c7ccc([C@@H]8c9ccc(O)cc9OC[C@@H]8c8ccccc8)cc7)CC6)C5)CCN43)C2=O)C(=O)N1 (stereo partly drawn) [Compound A22, 3-((S)-7-((7-(4-((3S,4R)-7-hydroxy-3-phenylchroman-4-yl)phenyl)-7-azaspiro[3.5]nonan-2-yl)methyl)-1-oxo-1,3,5,5a,6,7,8,9-octahydro-2H-pyrazino[1′,2′:4,5][1,4]oxazino[2,3-e]isoindol-2-yl)piperidine-2,6-dione] | < 50 nM |  | 
Cc1nn(C2CCC(=O)NC2=O)c2ccc(N3CCN(CC4CC5(CCN(c6ccc([C@@H]7c8ccc(O)cc8OC[C@@H]7c7ccccc7)cc6)CC5)C4)CC3)cc12 (single isomer, unassigned) [Compound A25] | 50 to 500 nM |  | 
O=C1CCC(N2C(=O)c3cc4c(cc3C2=O)CN(CC(=O)N2CCC3(CC2)CCN(c2ncc([C@@H]5c6ccc(O)cc6OC[C@@H]5c5ccccc5)cn2)CC3)C4)C(=O)N1 (stereo partly drawn) [Compound A5, 2-(2,6-dioxopiperidin-3-yl)-6-(2-(9-(5-((3S,4R)-7-hydroxy-3-phenylchroman-4-yl)pyrimidin-2-yl)-3,9-diazaspiro[5.5]undecan-3-yl)-2-oxoethyl)-6,7-dihydropyrrolo[3,4-f]isoindole-1,3(2H,5H)-dione] | 500 to 5000 nM |  | 
